In patent US20140023611A1 (priority 2010, published 2014):

How the values were obtained:
[1] = system: uptake of phosphate from the intestine; test: In vivo assay: bolus phosphorus (phosphate) challenge; design: species or system Sprague-Dawley rats; details: Structure (V) examples, Table 4, rat; for Serum increase [Pi] mg/dL from baseline low PI state: mean ± SD
Procedure: By pretreating animals with a low phosphorus diet followed by the subsequent dosing of a phosphorus bolus, serum phosphorus levels were monitored after 30 minutes as a surrogate for intestinal phosphorus absorption. […] The in vivo bolus phosphorus challenge model used here mimics this model in rats.
Male, 7-week-old Sprague-Dawley rats (Charles-River laboratories international, Hollister, Calif.) were allowed to acclimatize for a minimum of 3 days before switching to a synthetic low-phosphorus diet (TD.85010, Harlan Teklad, Madison, Wis.) which contains 0.1% phosphorus and 0.6% calcium. At day 5, testing compounds or vehicle alone (as indicated) were orally administered at the indicated dose in a volume of 5 ml/kg, followed by a bolus gavage of monobasic sodium phosphate (1 mmol in 1 ml) 15 min after compound dosing. Serum was collected via retroorbital bleeding 30 min post phosphate bolus and phosphate levels were determined utilizing an ACE ALERA blood chemistry analyzer (Alfa Wassermann Diagnostic Technologies, West Caldwell, N.J.). […]
Male, 7-week-old Sprague-Dawley rats (Charles-River laboratories international, Hollister, Calif.) were allowed to acclimate for a minimum of 3 days before switching to a synthetic low-phosphorus diet (TD.85010, Harlan Teklad, Madison, Wis.) which contains 0.1% phosphorus and 0.6% calcium. At day 5, testing compounds or vehicle alone (as indicated) were orally administered at the indicated dose in a volume of 5 ml/kg, followed by a bolus gavage of monobasic sodium phosphate (1 mmol in 1 ml) 15 min after compound dosing. Serum was collected via retroorbital bleeding 30 min post phosphate bolus and phosphate levels were determined utilizing an ACE ALERA blood chemistry analyzer (Alfa Wassermann Diagnostic Technologies, West Caldwell, N.J.).
Serum was collected 30 minutes after gavage, and phosphate levels measured. […] The in vivo bolus phosphate challenge model used here mimics this model in rats.
Male, 7-week-old Sprague-Dawley rats (Charles-River laboratories international, Hollister, Calif.) were allowed to acclimatize for a minimum of 3 days before switching to a low-phosphorus diet (TD.85010, Harlan Teklad, Madison, Wis.) which contains 0.1% phosphorus and 0.6% calcium. At day 5, testing compounds or vehicle alone (as indicated) were orally administered at the indicated dose in a volume of 5 ml/kg, followed by a bolus gavage of monobasic sodium phosphate (1 mmol in 1 ml) 15 min after compound dosing. Serum was collected via retroorbital bleeding 30 min post phosphate bolus and serum phosphate levels were determined utilizing an ACE ALERA blood chemistry analyzer (Alfa Wassermann Diagnostic Technologies, West Caldwell, N.J.).
The representative data on effects of test compounds on serum phosphate levels are shown in Table 4 (data are expressed as mean±SD, with 6 animals per data point). The differences between groups were evaluated by one-way analysis of variance with Dunnett's post hoc tests.

[2] = Stability of compounds in simulated gastric and intestinal fluid; assay type: in vitro ADME; details: Structure (V) examples, Table 3, 3 hr; for % remaining, SGF: simulated gastric fluid; for % remaining, SIF: simulated intestinal fluid
Procedure: (§1) Test compounds were incubated at 1-20 μM in simulated gastric fluid (SGF; standard USP solution with 3 mg/mL pepsin) or simulated intestinal fluid (SIF; standard USP solution with 3 mg/mL pancreatin) for 3 hr or 6 hr. HPLC-UV or HPLC-MS were used to determine test compound levels using peak area %. Results (Table 5) were reported as the percentage of test compound remaining after incubation in a given condition relative to test compound present at t=0 in the same condition.
as §1, with “3” for “3 hr or 6”, “3)” for “5)”

NaPi2b = test: Competition with phosphate: Pi uptake assay repeated at 2.1 vs 0.1 mM phosphate; assay type: cell-based; details: potency at 2.1 vs 0.1 mM phosphate
Text: For example, a phosphate uptake assay can be performed and the IC50 values for a compound at different phosphate concentrations can be determined (e.g., “Enzyme kinetics”, I. Segel, 1975, John-Wiley & Sons, p. 123). IC50 values for non-competitive inhibitors will remain the same or similar with respect to the phosphate concentration, whereas IC50 values for competitive inhibitors will increase (i.e lose potency) as phosphate concentration increases.
To ascertain if an inhibitor was competitive for binding with phosphate, the procedure was repeated, but raising the concentration of the substrate in the assay mixture from 0.1 to 2.1 mM phosphate.

[3] = oral 30 mg/kg, vehicle 5.0 ± 1.3

| % remaining, SGF [2] | % remaining, SIF [2] | Structure (SMILES) | % Decrease in serum [Pi] ([1]; oral 10 mg/kg) | Serum increase [Pi] mg/dL from baseline low PI state ([1]; oral 10 mg/kg) | % Decrease in serum [Pi] ([1]; oral 30 mg/kg) | Serum increase [Pi] mg/dL from baseline low PI state [1, 3] | Competitive with respect to Pi? (NaPi2b) |
| --- | --- | --- | --- | --- | --- | --- | --- |
| 6% | 107% | O=C(NCCN1CCOCC1)c1cccc(C(=O)Nc2ccc(N3CCCCC3)cc2C(=O)N/N=C/c2ccc(Cl)c(C(F)(F)F)c2)c1 [Ex. 53, (E)-N^1-(2-(2-(4-chloro-3-(trifluoromethyl)benzylidene)hydrazinecarbonyl)-4-(piperidin-1-yl)phenyl)-N3-(2-morpholinoethyl)isophthalamide] | 62% | 1.9 ± 1.1 mg/dL | 79% | 1.1 ± 0.8 mg/dL | – |
| – | – | O=C(O)c1cccc(SCc2cccc(C(=O)Nc3ccc(N4CCCCC4)cc3-c3cc(C(=O)NCc4cccc(C(F)(F)F)c4)ccn3)c2)c1 [Example 8.1, 3-(3-(4-(piperidin-1-yl)-2-(4-(3-(trifluoromethyl)benzylcarbamoyl)pyridin-2-yl)phenylcarbamoyl)benzylthio)benzoic acid] | – | – | – | – | No |
| – | – | CN(CCN1CCOCC1)C(=O)c1cccc(C(=O)Nc2ccc(N3CCCCC3)cc2-c2cc(C(=O)NCc3cccc(C(F)(F)F)c3)ccn2)c1 [Example 80, N1-Methyl-N1-(2-morpholinoethyl)-N3-(4-(piperidin-1-yl)-2-(4-((3-(trifluoromethyl)benzyl)carbamoyl)pyridin-2-yl)phenyl)isophthalamide] | – | – | – | – | No |
| 21% | 89% | COCCNC(=O)CCSCc1cccc(C(=O)Nc2ccc(N3CCCCC3)cc2C(=O)N/N=C/c2ccc(Cl)c(C(F)(F)F)c2)c1 [Ex. 49, (E)-N-(2-(2-(4-chloro-3-(trifluoromethyl)benzylidene)hydrazinecarbonyl)-4-(piperidin-1-yl)phenyl)-3-((3-(2-methoxyethylamino)-3-oxopropylthio)methyl)benzamide] | – | – | 24% | 3.8 ± 0.8 mg/dL | – |
